Data: patent US20120245229A1, “METHOD FOR TREATING NEUROPATHIC PAIN” (priority 2009, published 2012)

Legend:
[1] = test system: complete Freund's adjuvant (CFA)-evoked heat hyperalgesia; assay: CFA-evoked heat hyperalgesia (paw withdrawal latency, Hargreaves); type: in vivo, mice; details: for reduction of heat hyperalgesia: 10 ng i.t., post-CFA day 3, 1 h after injection
Protocol: (§1) Animals and pain models. Adult CD1 mice (male, 25-32 g) were used for most experiments. Knockout mice were used lacking TNFR1/II (Tnfrsf1a/1b^−/−) and TRPV1 (Trpv1^−/−) and C57BL/6 wild-type control mice, all from Jackson, for some experiments. All animal procedures performed in this study were approved by the Harvard Medical Area Standing Committee on Animals. 20 μl of diluted formalin (5%), carrageenan (CRG, 1%), or complete Freund's adjuvant (CFA) were injected into the plantar surface of a hindpaw to produce acute, persistent, or chronic inflammatory pain, respectively. Postoperative pain was also produced through hindpaw incision^36 and neuropathic pain by ligation of the spinal nerve^37.
Reagents and administration. RvE1 and RvD1 were suspended in 1% or 10% ethanol as vehicle for investigating acute (<1 h) and persistent (1-6 h) effects of resolvins on inflammatory pain. The reagents (10 μl) were delivered to the cerebral spinal fluid via intrathecal injection made by a spinal cord puncture between the L5 and L6 level with a 30G needle^38.
(§2) Behavioral analysis. Mice were habituated in the testing environment for two days and performed behavioral testing in a blinded manner. Formalin-evoked spontaneous inflammatory pain was assessed by measuring duration (seconds) animals spent on licking/flinching the affected paws every 5 min for 45 min. Capsaicin-induced spontaneous pain was aslo assessed for 10 min. For testing mechanical sensitivity, mice were put in boxes on an elevated metal mesh floor and stimulated hindpaw with a series of von Frey hairs with logarithmically incrementing stiffness (0.02-2.56 grams, Stoelting), presented perpendicular to the plantar surface. It was determined the 50% paw withdrawal threshold using Dixon's up-down method^40. For testing heat sensitivity, mice were placed in plastic boxes and tested heat sensitivity using Hargreaves radiant heat apparatus (IITC Life Science Inc.). The basal paw withdrawal latency was adjusted to 9-12 seconds and set a cut-off of 20 seconds to prevent tissue damage. The percent maximal possible antinociceptive effect (% M.P.E) was calculated using the equation % M.P.E.=[(PL−BL2)/(BL1−BL2)]×100. BL1, baseline latency before inflammation; BL2, baseline latency after inflammation but before drug injection; PL, latency post drug injection.
Intrathecal injection. To avoid systemic effects of drugs and target spinal mechanisms, drugs were delivered into cerebral spinal fluid (CSF) space around lumbosacral spinal cord via intrathecal (i.t.) administration. Spinal cord puncture was made with a 30G needle between the L5 and L6 level to deliver the reagents (10 μl) to the cerebral spinal fluid (Hylden and Wilcox, 1980)^5. […] In addition to spinal cord cells, intrathecal drug administration also affects DRG cells^6,7.
The anti-hyperalgesic efficacy of RvE1 prepared in 1% and 10% ethanol was compared on post-CFA day 3.

neutrophil infiltration = assay: Myeloperoxidase (MPO) assay of neutrophil infiltration in the inflamed paw; type: in vivo, mice; details: intraplantar pretreatment; 4 h after CRG injection
Protocol: Myeloperoxidase assay. Paw inflammation is associated with infiltration of neutrophils (polymorphonuclear cells), and myeloperoxidase (MPO) activity is often used to quantify neutrophil activation to evaluate the magnitude of paw inflammation. To determine MPO assay, fresh skin tissues were suspended in phosphate buffer and homogenized. The suspension was centrifuged and the supernatant was assayed for MPO activity using a MPO Activity Assay Kit (Northwest Life Science Specialties, LLC). Each reaction was performed according to manufacturer's protocol. Briefly, hypochlorous acid (HOCl) is formed from MPO catalyzed reaction between chloride and hydrogen peroxide. HOCl is rapidly trapped by β-amino acid taurine to form a stable oxidant taurine chloramine. Taurine chloramine is then allowed to react with 5-thio-2-nitrobenzoic acid (TNB). TNB has a chromophore that has maximal absorbance at 412 nm while its reaction product with taurin chloramine is colorless. The color change is detected by spectrophotometry. By following the decrease of absorbance at 412 nm, MPO activity is measured. One unit is the amount of MPO that can produce 1.0 nmole of taurine chloramine at pH 6.5 and 25° C. during 30 minutes in the presence of 100 mM chloride and 100 μM of hydrogen peroxide.

lamina II neurons = assay: Patch clamp recording of sEPSCs in lamina II neurons of spinal cord slices; type: cell-based, mice
Protocol: Spinal cord slice preparation. As previously reported^39, a portion of the lumbar spinal cord (L4-L5) was removed from young mice (3-4 week old) under urethane anesthesia (1.5-2.0 g/kg, i.p.) and transverse spinal cord slices were cut (600 μm) on a vibrating microslicer. The slices were perfused with Kreb's solution (8 ml/min) for >2 h prior to experiments. Some slices were stimulated with TNF-α (10 ng/ml, 5 min), the slices were fixed with 4% paraformaldehyde for 1 h, and processed pERK immunohistochemistry using thin sections (15 μm)^13.
Patch clamp recordings in spinal slices. Whole cell patch-clamp recordings were performed in lamina II neurons in voltage clamp mode^39. After establishing the whole-cell configuration, neurons were held at the holding potentials of −70 mV for recording spontaneous excitatory postsynaptic current (sEPSC). NMDA-induced currents were recorded by bath application of NMDA (50 μM, Sigma) at the holding potential of −50 mV. Membrane currents were amplified with an Axopatch 200A amplifier (Axon Instruments) in voltage-clamp mode. pCLAMP 6 was used and Mini Analysis (Synaptosoft Inc.) software to store and analyze the data. Those cells showing >5% changes from the baseline levels were reagrded as responding ones^24.
Resolvins were also used for intraplantar injection. RvD1 or RvE1 was injected into the plantar surface of a hindapaw [20 ng, 20 μl , in 1% ethanol (Supplementary FIG. 5a, 5b) or in 10% ethanol (FIG. 2e, Supplementary FIG. 1d)]. DRG cultures were incubated with RvE1 (10 ng/ml, 0.1% ethanol in culture medium) and perfused spinal cord slices with RvE1 (1 ng/ml, in 0.01% ethanol and Kreb's solution).
Perfusion of spinal cord slices: Spinal cord slices were incubated with chemerin (100 ng/ml, in Kreb's solution), TNF-α (10 ng/ml, in Kreb's solution), capsaicin (100 nM, in 0.01% DMSO and Kreb's solution), TRPV1 antagonist capsazepine (Sigma, 10 μM, in 0.01% DMSO and Kreb's solution), pertussix toxin (0.5 μg/ml, in Kreb's solution), and MEK inhibitor PD98059 and U0126 (CalBiochem, 1 μM, in 0.01% DMSO and Kreb's solution). For pertussix toxin treatment, spinal cord slices were incubated with the toxin for 3 h before stimulation.

[2] = test system: paw incision-induced postoperative pain; assay: Postoperative pain model induced by hindpaw incision; type: in vivo, mice; details: postoperative pain model induced by surgical incision
Protocol: as §1
Behavioral analysis. Mice were habituated in the testing environment for two days and performed behavioral testing in a blinded manner. Formalin-evoked spontaneous inflammatory pain was assessed by measuring duration (seconds) animals spent on licking/flinching the affected paws every 5 min for 45 min. Capsaicin-induced spontaneous pain was aslo assessed for 10 min. […] It was determined the 50% paw withdrawal threshold using Dixon's up-down method^40. […] The percent maximal possible antinociceptive effect (% M.P.E) was calculated using the equation % M.P.E.=[(PL−BL2)/(BL1−BL2)]×100. […]

[3] = test system: SNL-induced neuropathic pain; assay: Neuropathic pain model induced by spinal nerve ligation (SNL); type: in vivo, mice
Protocol: as §1, §2

Question: What does the source list for CC[C@@H](O)/C=C/C=C\C[C@@H](O)/C=C/C=C/C=C\[C@@H](O)CCCC(=O)O [RvE1, 5S,12R,18R-trihydroxyeicosapentaenoic acid]?
Answer: reduction of heat hyperalgesia ([1]; vehicle 1% ethanol): 54.7%; reduction of heat hyperalgesia ([1]; vehicle 10% ethanol): 55.7%; reduction in hyperalgesia ([1]; 10 ng intrathecal, post-CFA day 3, 15 min after administration): ~75%; potency of 10 ng RvE1 compared with 10 μg NS-398 ([1]; intrathecal, CFA heat hyperalgesia, 1-6 h): more potent than 10 μg COX-2 inhibitor NS-398; neutrophil infiltration (MPO activity) (neutrophil infiltration): reducing; capsaicin-induced increases in sEPSC frequency after pretreatment with pertussis toxin (lamina II neurons; PTX 0.5 μg/ml for 3 h before capsaicin stimulation): fails to inhibit; basal synaptic transmission (sEPSC) (lamina II neurons; RvE1 alone, 1 ng/ml perfusion): did not alter basal synaptic transmission; TNF-α-evoked sEPSC frequency increase (lamina II neurons; TNF-α 10 ng/ml, RvE1 1 ng/ml, capsazepine 10 μM): blocked; capsaicin-evoked sEPSC frequency increase (lamina II neurons; capsaicin 100 nM, RvE1 1 ng/ml, chemerin 100 ng/ml, PD98059 and U0126 1 μM): completely blocked; postoperative pain [2]: effectively abolish; SNL-induced heat hyperalgesia ([3]; 10 ng, i.t., one day after spinal nerve ligation): reduces SNL-induced heat hyperalgesia; nerve injury-induced hyperalgesia ([3]; neuropathic pain model induced by spinal nerve ligation): potently attenuate
